We go through one compound from ChEMBL document CHEMBL4665654, “Design, synthesis and evaluation of antiproliferative activity of fluorinated betulinic acid” (Bioorg Med Chem, 2019).

Calls of active or inactive are those of the source. The rule behind the calls is not given here.

In series [1] the target is T1, DNA topoisomerase 1 (Homo sapiens) (UniProt P11387).
T1 sequence (whole entry): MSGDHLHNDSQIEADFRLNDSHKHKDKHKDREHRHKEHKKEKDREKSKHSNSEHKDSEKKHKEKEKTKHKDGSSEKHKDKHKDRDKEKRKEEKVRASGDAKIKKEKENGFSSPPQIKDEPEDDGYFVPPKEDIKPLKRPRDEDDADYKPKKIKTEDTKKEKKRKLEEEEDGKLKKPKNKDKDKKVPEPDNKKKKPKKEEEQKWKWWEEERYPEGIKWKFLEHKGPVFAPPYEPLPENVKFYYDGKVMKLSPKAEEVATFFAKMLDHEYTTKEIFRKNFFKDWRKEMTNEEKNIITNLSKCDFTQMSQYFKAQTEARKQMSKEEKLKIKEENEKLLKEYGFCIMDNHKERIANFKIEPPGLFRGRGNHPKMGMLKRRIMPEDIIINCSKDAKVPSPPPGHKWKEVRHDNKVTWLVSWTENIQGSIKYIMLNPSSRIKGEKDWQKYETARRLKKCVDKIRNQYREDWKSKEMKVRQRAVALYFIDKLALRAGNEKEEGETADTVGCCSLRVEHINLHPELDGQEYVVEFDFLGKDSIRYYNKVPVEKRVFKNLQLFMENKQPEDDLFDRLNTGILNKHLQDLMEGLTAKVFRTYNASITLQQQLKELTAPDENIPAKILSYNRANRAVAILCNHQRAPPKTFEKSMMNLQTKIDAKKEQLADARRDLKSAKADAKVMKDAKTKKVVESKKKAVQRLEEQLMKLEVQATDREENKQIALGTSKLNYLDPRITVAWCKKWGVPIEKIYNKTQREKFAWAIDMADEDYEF
The series can be described thus: Inhibition of recombinant human topoisomerase 1 assessed as decrease in relaxation/nicking of supercoiled DNA using supercoiled DNA as substrate at 10 uM after 1 hr by ethidium bromide staining based agarose gel electrophoresis analysis.

For the next series, the system named is MDA-MB-231. The series can be described thus: Antiproliferative activity against human MDA-MB-231 cells assessed as cell growth inhibition after 72 hrs by sulforhodamine B assay. In kind it is functional, cell-based. The settings on record: MDA-MB-231, 72 h. For orientation: In SRB staining, fixed cells bind dye roughly in proportion to their protein.
The subject of series [2] is MCF7. Description: Induction of apoptosis in human MCF7 cells assessed as increase in cleaved PARP protein expression at 20 to 40 uM incubated for 72 hrs by Western blot analysis. In kind it is functional, cell-based. As to conditions: dose microM 20-40, time 72.0 hrs.
The test system of series [3] is MCF7. The series can be described thus: Modulation of DNA replication associated gene expression in human MCF7 cells at 40 uM after 24 hrs by cDNA microarray analysis. In kind it is functional, cell-based.
Series [4] concerns the target T1, DNA topoisomerase 1 (Homo sapiens). Description: Inhibition of topoisomerase 1 in human MCF7 cells nuclear extract assessed as decrease in relaxation/nicking of supercoiled DNA using supercoiled DNA as substrate at 40 uM after 1 hr by ethidium bromide staining based agarose gel electrophoresis analysis. The settings on record: Nucleus. The class given is subcellular.

In series [5] the test system is MCF7. Description: Modulation of DNA repair related gene expression in human MCF7 cells at 40 uM after 24 hrs by cDNA microarray analysis. The class given is functional, cell-based.
The target in series [6] is T1, DNA topoisomerase 1 (Homo sapiens). The series can be described thus: Inhibition of recombinant human topoisomerase 1 assessed as decrease in relaxation/nicking of supercoiled DNA using supercoiled DNA as substrate after 1 hr by ethidium bromide staining based agarose gel electrophoresis analysis. As to conditions: dose microM 1-30, time 1.0 hrs.
Series [7] has as its system MCF7. The series can be described thus: Inhibition of colony formation in human MCF7 cells at 10 to 40 uM of compound exposure followed by compound washout and subsequent incubation for 3 weeks by crystal violet staining based assay. In kind it is functional, cell-based. As to conditions: dose microM 10-40.
The subject of series [8] is MCF7. The series can be described thus: Induction of apoptosis in human MCF7 cells assessed as increase in cleaved caspase-7 protein expression at 20 to 40 uM incubated for 72 hrs by Western blot analysis. The class given is functional, cell-based. The settings on record: dose microM 20-40, time 72.0 hrs.
Series [9] concerns MCF7. Description: Antiproliferative activity against human MCF7 cells assessed as cell growth inhibition after 72 hrs by sulforhodamine B assay. In kind it is functional, cell-based. The settings on record: MCF7, 72 h.
The next series relates to KB. The series can be described thus: Antiproliferative activity against human KB cells assessed as cell growth inhibition after 72 hrs by sulforhodamine B assay. The class given is functional, cell-based.
The subject of series [10] is MCF7. The series can be described thus: Antiproliferative activity against human MCF7 cells assessed as cell killing at 30 uM after 72 hrs by MTT assay. The class given is functional. Background: Formazan colour is commonly taken as a measure of viable cells.
Series [11] is described as follows: Cytotoxicity against human MCF-10A cells assessed as cell viability at 30 uM after 72 hrs by MTT assay. The settings on record: read-out: Activity. The class given is cell-based.
The test system of series [12] is MCF7. The series can be described thus: Induction of apoptosis in human MCF7 cells at 20 to 40 uM by Annexin V-FITC/propidium iodide staining-based flow cytometric analysis. In kind it is functional, cell-based. As to conditions: dose microM 20-40, time hrs 24-72, TDE = time-dependent effect.
A further series has as its system MCF-10A. The series can be described thus: Cytotoxicity against human MCF-10A cells assessed as cell viability at 10 uM after 72 hrs by MTT assay. In kind it is cell-based.
For series [13], the target named is DNA topoisomerase 2-alpha (Homo sapiens) (UniProt P11388). Description: Inhibition of topoisomerase-2alpha in human MCF7 cells nuclear extract assessed as decrease in relaxation/nicking of kinetoplast DNA using kDNA as substrate at 40 uM after 15 mins by ethidium bromide staining based agarose gel electrophoresis analysis. In kind it is subcellular. The settings on record: Nucleus.

The next series relates to A549. Description: Antiproliferative activity against human A549 cells assessed as cell growth inhibition after 72 hrs by sulforhodamine B assay. As to conditions: A549, 72 h. The class given is functional, cell-based.
In series [14] the target is DNA topoisomerase 2-alpha (Homo sapiens) (UniProt P11388). The series can be described thus: Inhibition of recombinant human topoisomerase-2alpha assessed as decrease in relaxation/nicking of kinetoplast DNA using kDNA as substrate after 15 mins by ethidium bromide staining based agarose gel electrophoresis analysis. The settings on record: dose microM 30-100, time 15.0 min.

Series [15] relates to MCF7. Description: Induction of apoptosis in human MCF7 cells assessed as increase in cleaved caspase-9 protein expression at 20 to 40 uM incubated for 72 hrs by Western blot analysis. The class given is functional, cell-based. As to conditions: dose microM 20-40, time 72.0 hrs. Background: A western blot detects proteins with antibodies after separation by electrophoresis.

In series [16] the target is DNA topoisomerase 2-alpha (Homo sapiens) (UniProt P11388). Description: Inhibition of recombinant human topoisomerase-2alpha assessed as decrease in relaxation/nicking of kinetoplast DNA using kDNA as substrate at 30 uM after 15 mins by ethidium bromide staining based agarose gel electrophoresis analysis.
Series [17] has as its target T1, DNA topoisomerase 1 (Homo sapiens). The series can be described thus: Inhibition of recombinant human topoisomerase 1 assessed as decrease in relaxation/nicking of supercoiled DNA using supercoiled DNA as substrate at 3 uM after 1 hr by ethidium bromide staining based agarose gel electrophoresis analysis.
Series [18] is described as follows: Antiproliferative activity against human KB-VIN cells assessed as cell growth inhibition after 72 hrs by sulforhodamine B assay. In kind it is functional, cell-based. As to conditions: KBVIN.
Series [19] concerns MCF7. The series can be described thus: Induction of apoptosis in human MCF7 cells incubated for 24 to 72 hrs by Annexin V-FITC/propidium iodide staining-based flow cytometric analysis. The class given is functional, cell-based. As to conditions: dose microM 20-40, time hrs 24-72.

Sequence of DNA topoisomerase 2-alpha (Homo sapiens) (P11388 whole entry): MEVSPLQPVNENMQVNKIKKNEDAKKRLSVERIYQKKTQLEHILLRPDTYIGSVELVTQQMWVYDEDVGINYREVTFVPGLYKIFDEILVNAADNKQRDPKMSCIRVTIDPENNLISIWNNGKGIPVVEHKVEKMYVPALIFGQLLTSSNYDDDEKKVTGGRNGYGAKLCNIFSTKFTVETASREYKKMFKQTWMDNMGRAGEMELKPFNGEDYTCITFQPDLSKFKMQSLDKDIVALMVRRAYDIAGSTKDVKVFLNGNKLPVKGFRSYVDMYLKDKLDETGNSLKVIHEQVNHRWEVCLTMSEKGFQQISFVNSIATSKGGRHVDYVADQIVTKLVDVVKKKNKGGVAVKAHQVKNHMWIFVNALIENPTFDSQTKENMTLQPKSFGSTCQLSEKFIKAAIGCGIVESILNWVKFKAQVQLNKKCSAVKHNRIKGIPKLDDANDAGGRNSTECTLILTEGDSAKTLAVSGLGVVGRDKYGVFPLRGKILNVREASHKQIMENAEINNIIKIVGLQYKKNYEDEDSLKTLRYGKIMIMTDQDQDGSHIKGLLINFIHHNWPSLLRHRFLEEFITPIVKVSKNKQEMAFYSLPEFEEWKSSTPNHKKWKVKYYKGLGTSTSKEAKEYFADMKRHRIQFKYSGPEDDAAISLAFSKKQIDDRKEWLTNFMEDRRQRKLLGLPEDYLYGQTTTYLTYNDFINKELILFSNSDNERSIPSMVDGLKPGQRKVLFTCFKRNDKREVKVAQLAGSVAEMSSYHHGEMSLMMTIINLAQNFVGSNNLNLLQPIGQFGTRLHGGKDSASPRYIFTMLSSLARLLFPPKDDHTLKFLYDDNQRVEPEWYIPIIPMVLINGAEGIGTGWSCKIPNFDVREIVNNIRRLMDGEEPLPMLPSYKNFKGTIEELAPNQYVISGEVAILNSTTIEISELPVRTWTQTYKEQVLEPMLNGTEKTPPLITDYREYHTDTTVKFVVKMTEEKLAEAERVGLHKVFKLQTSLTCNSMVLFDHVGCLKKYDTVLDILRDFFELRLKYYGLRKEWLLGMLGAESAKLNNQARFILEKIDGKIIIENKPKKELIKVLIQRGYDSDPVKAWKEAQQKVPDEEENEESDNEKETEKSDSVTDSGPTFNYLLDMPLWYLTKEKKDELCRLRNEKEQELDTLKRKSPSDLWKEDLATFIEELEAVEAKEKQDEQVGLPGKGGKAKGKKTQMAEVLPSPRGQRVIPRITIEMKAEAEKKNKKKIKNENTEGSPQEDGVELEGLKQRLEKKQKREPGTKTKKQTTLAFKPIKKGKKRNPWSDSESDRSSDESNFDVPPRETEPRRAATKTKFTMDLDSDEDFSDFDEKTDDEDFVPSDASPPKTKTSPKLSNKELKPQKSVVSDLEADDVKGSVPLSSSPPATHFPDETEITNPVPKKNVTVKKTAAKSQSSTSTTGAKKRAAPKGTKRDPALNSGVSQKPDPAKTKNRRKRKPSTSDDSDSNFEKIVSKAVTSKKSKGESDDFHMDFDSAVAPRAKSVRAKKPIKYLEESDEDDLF

Turning to `C=C(C)[C@@H]1CC[C@]2(C(=O)O)CC[C@]3(C)[C@H](CC[C@@H]4[C@@]5(C)CC(F)[C@H](O)C(C)(C)[C@@H]5CC[C@]43C)[C@@H]12` (mixture of isomers), the inhibition entry (in series [1]; in series [4]; in the series with MCF7 [7]; in series [13]; in [16]; in series [17]) was “Active” throughout. Further, the IC50 (as a rule, the concentration that gives 50% inhibition) was determined as 11 µM in the series on MDA-MB-231; 9.2 µM in the series with MCF7 [9]; 6.5 µM with KB; 6.1 µM with A549; 7 µM in [18]. Further, the result in the series on MCF7 [2], in the series on MCF7 [3], with MCF7 [5], in the series on MCF7 [8] and in the series on MCF7 [15] was Active. The inhibition entry in series [6] and in series [14] was “Dose-dependent effect” each time. Further, the Activity with MCF7 [10] is above 80%; in the series on MCF7 [12], “Tde”; with MCF-10A, “Non-Toxic”; with MCF7 [19], “Dose-dependent effect”. For the same compound, the viability at 72 h, 30 µM in series [11] is 80%.
